Results from PubChem BioAssay (NCI).
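Grown in 96-well plates, cells were treated for 48 hours with each compound at five concentrations. Insufficient inhibition: endpoint recorded as highest concentration tested. TGI is the concentration that stops growth completely.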

How the values were obtained:
Assay in all cases: NCI tumour cell line growth inhibition, 48 h
P388 leukemia = system: P388 leukemia
SN12K1 renal = system: SN12K1 renal
P388/ADR leukemia = system: P388/ADR leukemia

## C[C@@]12CC[C@H]3[C@@H]4CCC(=O)N[C@@]4(C)CC[C@@H]3[C@@]1(C)CC[C@H](OC(=O)Cc1ccc(N(CCCl)CCCl)cc1)C2
P388 leukemia
  TGI: 32 µM
SN12K1 renal
  TGI: 32.5 µM
P388/ADR leukemia
  TGI: 58.8 µM
